According to ChEMBL document CHEMBL1148862, “Evaluation of the anti-hepatitis C virus effect of novel potent, selective, and orally bioavailable JNK and VEGFR kinase inhibitors” (Bioorg Med Chem Lett, 2007):
Blank lines part the entries; values can stand above or below the compound they belong to. The source made the active and inactive calls. No cut-off for these calls is given here.

Tests used:
[1] = system: Hepatitis C virus; test: Antiviral activity against HCV in Huh7-Rep cells by luciferase assay; format: functional, organism-based, Hepacivirus hominis
[2] = Cytotoxicity against MT4 cells by luciferase assay; format: cell-based; settings: human
[3] = Cytotoxicity against Huh7 cells by luciferase assay; format: cell-based, Huh-7; settings: human
[4] = system: Hepatitis C virus; test: Antiviral activity against HCV ET replicon with NS3 E1202G, T1280I mutation and NS4B K1846 mutation; format: functional, organism-based; settings: Hepacivirus hominis
[5] = system: Bovine viral diarrhea virus 1; test: Antiviral activity against BVDV upto 100 uM; format: functional, organism-based
[6] = biological target: Mitogen-activated protein kinase 9 (Homo sapiens, UniProt P45984); test: Inhibition of human JNK2
Sequence of Mitogen-activated protein kinase 9 (P45984 whole entry): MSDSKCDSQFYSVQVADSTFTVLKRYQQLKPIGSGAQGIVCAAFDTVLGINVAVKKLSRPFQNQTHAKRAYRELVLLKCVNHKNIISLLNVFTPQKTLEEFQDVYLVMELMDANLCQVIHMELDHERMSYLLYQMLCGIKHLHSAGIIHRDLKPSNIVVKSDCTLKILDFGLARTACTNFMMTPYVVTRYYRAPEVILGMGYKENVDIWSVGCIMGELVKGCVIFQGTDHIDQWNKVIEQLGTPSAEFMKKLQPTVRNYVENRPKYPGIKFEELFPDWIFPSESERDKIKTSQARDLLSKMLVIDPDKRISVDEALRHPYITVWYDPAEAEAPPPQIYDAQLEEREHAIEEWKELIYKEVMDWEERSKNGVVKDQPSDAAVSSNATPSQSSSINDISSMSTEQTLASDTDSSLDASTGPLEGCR

[7] = biological target: Mitogen-activated protein kinase 10 (Homo sapiens, UniProt P53779); test: Inhibition of human JNK3
Sequence of Mitogen-activated protein kinase 10 (P53779 whole entry): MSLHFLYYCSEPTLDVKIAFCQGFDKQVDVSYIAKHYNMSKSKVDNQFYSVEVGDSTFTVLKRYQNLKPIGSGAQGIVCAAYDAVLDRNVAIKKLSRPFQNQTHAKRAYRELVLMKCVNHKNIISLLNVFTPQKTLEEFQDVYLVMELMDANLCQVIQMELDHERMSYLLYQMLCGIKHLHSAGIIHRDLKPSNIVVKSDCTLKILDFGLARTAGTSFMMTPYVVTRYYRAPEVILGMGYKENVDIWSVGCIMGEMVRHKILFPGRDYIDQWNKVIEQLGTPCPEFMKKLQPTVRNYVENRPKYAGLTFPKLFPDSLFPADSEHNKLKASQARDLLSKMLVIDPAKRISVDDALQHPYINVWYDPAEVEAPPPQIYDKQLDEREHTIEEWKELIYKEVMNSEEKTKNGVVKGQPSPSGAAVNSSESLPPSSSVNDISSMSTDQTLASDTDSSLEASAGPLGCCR

[8] = biological target: Vascular endothelial growth factor receptor 1 (Homo sapiens, UniProt P17948); test: Inhibition of human VEGFR1
[9] = biological target: Vascular endothelial growth factor receptor 2 (Homo sapiens, UniProt P35968); test: Inhibition of human VEGFR2
Sequence of Vascular endothelial growth factor receptor 2 (P35968 whole entry): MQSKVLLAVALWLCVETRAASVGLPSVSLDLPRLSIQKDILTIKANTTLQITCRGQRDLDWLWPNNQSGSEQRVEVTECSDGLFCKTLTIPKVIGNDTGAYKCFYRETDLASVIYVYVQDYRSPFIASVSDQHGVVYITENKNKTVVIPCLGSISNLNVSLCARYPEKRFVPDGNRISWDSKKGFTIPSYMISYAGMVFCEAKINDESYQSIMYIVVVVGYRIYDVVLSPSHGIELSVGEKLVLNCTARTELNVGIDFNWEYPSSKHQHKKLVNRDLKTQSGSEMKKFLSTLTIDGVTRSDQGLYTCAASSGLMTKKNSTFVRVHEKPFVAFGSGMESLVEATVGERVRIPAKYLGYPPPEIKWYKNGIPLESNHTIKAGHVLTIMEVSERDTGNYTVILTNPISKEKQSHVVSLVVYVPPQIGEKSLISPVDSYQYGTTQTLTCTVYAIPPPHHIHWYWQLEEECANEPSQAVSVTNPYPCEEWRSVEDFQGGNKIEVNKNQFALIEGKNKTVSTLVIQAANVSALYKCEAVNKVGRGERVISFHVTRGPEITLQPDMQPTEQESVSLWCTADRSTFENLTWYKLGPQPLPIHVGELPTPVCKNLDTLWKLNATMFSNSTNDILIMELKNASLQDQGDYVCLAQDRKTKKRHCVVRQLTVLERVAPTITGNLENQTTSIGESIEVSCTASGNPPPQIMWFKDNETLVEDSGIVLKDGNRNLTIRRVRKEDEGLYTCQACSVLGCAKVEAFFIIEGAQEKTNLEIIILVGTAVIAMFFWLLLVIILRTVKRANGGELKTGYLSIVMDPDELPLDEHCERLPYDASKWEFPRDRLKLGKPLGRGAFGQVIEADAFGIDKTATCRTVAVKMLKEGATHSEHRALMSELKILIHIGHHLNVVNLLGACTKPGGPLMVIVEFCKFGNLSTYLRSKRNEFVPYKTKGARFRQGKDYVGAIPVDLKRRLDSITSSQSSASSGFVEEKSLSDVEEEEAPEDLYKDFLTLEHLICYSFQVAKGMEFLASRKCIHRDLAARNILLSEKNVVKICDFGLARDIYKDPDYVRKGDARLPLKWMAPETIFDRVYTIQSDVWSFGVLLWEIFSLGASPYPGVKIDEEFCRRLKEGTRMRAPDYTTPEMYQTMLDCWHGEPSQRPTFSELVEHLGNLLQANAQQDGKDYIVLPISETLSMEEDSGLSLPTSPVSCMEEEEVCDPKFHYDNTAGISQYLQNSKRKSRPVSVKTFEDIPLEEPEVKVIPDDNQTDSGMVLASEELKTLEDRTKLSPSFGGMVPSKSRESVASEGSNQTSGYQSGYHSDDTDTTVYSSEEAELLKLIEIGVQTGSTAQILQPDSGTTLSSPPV

[10] = biological target: Vascular endothelial growth factor receptor 3 (Homo sapiens, UniProt P35916); test: Inhibition of human VEGFR3
Sequence of Vascular endothelial growth factor receptor 3 (P35916 whole entry): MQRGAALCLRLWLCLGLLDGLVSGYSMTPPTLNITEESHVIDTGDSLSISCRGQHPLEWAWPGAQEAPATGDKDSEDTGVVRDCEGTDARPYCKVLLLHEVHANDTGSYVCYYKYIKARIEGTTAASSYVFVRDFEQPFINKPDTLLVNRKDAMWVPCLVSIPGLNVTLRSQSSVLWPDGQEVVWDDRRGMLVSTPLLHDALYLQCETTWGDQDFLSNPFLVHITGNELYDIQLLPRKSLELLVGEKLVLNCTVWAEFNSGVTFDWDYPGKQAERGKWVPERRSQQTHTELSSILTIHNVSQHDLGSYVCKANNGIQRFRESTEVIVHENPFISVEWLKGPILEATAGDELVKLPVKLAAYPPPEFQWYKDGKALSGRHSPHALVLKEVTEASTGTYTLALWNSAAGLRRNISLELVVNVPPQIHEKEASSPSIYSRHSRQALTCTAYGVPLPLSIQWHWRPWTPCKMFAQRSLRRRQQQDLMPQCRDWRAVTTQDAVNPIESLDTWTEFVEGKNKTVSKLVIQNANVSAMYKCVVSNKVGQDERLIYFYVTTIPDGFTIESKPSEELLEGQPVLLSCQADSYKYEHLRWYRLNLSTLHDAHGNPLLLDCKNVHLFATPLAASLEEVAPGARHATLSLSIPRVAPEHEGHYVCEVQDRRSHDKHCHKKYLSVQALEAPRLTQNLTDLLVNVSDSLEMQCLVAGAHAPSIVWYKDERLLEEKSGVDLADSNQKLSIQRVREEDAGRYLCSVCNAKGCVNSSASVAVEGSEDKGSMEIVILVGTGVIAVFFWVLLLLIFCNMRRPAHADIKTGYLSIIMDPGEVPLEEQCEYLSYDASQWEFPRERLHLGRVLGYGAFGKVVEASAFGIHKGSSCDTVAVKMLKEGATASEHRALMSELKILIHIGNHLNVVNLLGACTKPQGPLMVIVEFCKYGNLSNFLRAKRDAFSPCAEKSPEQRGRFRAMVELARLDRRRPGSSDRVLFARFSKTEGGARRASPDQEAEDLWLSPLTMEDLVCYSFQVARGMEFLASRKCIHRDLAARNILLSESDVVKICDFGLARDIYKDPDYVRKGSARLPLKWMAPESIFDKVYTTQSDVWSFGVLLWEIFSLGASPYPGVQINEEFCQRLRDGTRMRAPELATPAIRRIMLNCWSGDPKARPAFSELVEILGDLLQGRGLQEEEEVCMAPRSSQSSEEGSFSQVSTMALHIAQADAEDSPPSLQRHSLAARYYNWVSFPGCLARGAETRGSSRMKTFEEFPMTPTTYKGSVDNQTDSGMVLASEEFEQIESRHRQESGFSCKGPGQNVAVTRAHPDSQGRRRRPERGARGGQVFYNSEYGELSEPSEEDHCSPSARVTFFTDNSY

[11] = system: Hepatitis C virus; test: Antiviral activity against HCV subgenomic 1a replicon upto 32 uM; format: functional, organism-based; settings: Hepacivirus hominis; subtype 1a
[12] = Drug level in Swiss SPF (CD1) mouse plasma at 20 mg/kg, po after 0.5 hrs; format: ADME, organism-based; parameters: dose 20 mg/kg, route oral
[13] = Drug level in Swiss SPF (CD1) mouse heart at 20 mg/kg, po after 0.5 hrs; format: ADME, organism-based; parameters: dose 20 mg/kg, route oral; settings: read-out: Drug uptake
[14] = Drug level in Swiss SPF (CD1) mouse liver at 20 mg/kg, po after 0.5 hrs; format: ADME, organism-based; parameters: dose 20 mg/kg, route oral; settings: read-out: Drug uptake
[15] = Drug level in Swiss SPF (CD1) mouse plasma at 20 mg/kg, po after 1 hr; format: ADME, organism-based; parameters: dose 20 mg/kg, route oral
[16] = Drug level in Swiss SPF (CD1) mouse heart at 20 mg/kg, po after 1 hr; format: ADME, organism-based; parameters: dose 20 mg/kg, route oral; settings: read-out: Drug uptake
[17] = Drug level in Swiss SPF (CD1) mouse liver at 20 mg/kg, po after 1 hr; format: ADME, organism-based; parameters: dose 20 mg/kg, route oral; settings: read-out: Drug uptake
[18] = Drug level in Swiss SPF (CD1) mouse plasma at 20 mg/kg, po after 2 hrs; format: ADME, organism-based; parameters: dose 20 mg/kg, route oral
[19] = Drug level in Swiss SPF (CD1) mouse heart at 20 mg/kg, po after 2 hrs; format: ADME, organism-based; parameters: dose 20 mg/kg, route oral; settings: read-out: Drug uptake
[20] = Drug level in Swiss SPF (CD1) mouse plasma at 20 mg/kg, po after 4 hrs; format: ADME, organism-based; parameters: dose 20 mg/kg, route oral
[21] = Drug level in Swiss SPF (CD1) mouse liver at 20 mg/kg, po after 2 hrs; format: ADME, organism-based; parameters: dose 20 mg/kg, route oral; settings: read-out: Drug uptake
[22] = Drug level in Swiss SPF (CD1) mouse heart at 20 mg/kg, po after 4 hrs; format: ADME, organism-based; parameters: dose 20 mg/kg, route oral; settings: read-out: Drug uptake
[23] = Drug level in Swiss SPF (CD1) mouse liver at 20 mg/kg, po after 4 hrs; format: ADME, organism-based; parameters: dose 20 mg/kg, route oral; settings: read-out: Drug uptake
[24] = Drug level in Swiss SPF (CD1) mouse plasma at 20 mg/kg, po after 8 hrs; format: ADME, organism-based; parameters: dose 20 mg/kg, route oral
[25] = Drug level in Swiss SPF (CD1) mouse heart at 20 mg/kg, po after 8 hrs; format: ADME, organism-based; parameters: dose 20 mg/kg, route oral; settings: read-out: Drug uptake
[26] = Drug level in Swiss SPF (CD1) mouse liver at 20 mg/kg, po after 8 hrs; format: ADME, organism-based; parameters: dose 20 mg/kg, route oral; settings: read-out: Drug uptake
[27] = Drug level in Swiss SPF (CD1) mouse plasma at 20 mg/kg, po after 24 hrs; format: ADME, organism-based; parameters: dose 20 mg/kg, route oral
[28] = Drug level in Swiss SPF (CD1) mouse heart at 20 mg/kg, po after 24 hrs; format: ADME, organism-based; parameters: dose 20 mg/kg, route oral; settings: read-out: Drug uptake
[29] = Cmax in Swiss SPF (CD1) mouse plasma at 20 mg/kg, po; format: ADME, organism-based; parameters: dose 20 mg/kg, route oral
[30] = Cmax in Swiss SPF (CD1) mouse heart at 20 mg/kg, po; format: ADME, organism-based; parameters: dose 20 mg/kg, route oral
[31] = Cmax in Swiss SPF (CD1) mouse liver at 20 mg/kg, po; format: ADME, organism-based; parameters: dose 20 mg/kg, route oral
[32] = Tmax in Swiss SPF (CD1) mouse plasma at 20 mg/kg, po; format: ADME, organism-based; parameters: dose 20 mg/kg, route oral
[33] = Tmax in Swiss SPF (CD1) mouse heart at 20 mg/kg, po; format: ADME, organism-based; parameters: dose 20 mg/kg, route oral
[34] = Tmax in Swiss SPF (CD1) mouse liver at 20 mg/kg, po; format: ADME, organism-based; parameters: dose 20 mg/kg, route oral
[35] = Half life in Swiss SPF (CD1) mouse plasma at 20 mg/kg, po after 2 to 8 hrs; format: ADME, organism-based; parameters: dose 20 mg/kg, route oral
[36] = Half life in Swiss SPF (CD1) mouse heart at 20 mg/kg, po after 2 to 8 hrs; format: ADME, organism-based; parameters: dose 20 mg/kg, route oral
[37] = Half life in Swiss SPF (CD1) mouse liver at 20 mg/kg, po after 2 to 8 hrs; format: ADME, organism-based; parameters: dose 20 mg/kg, route oral
[38] = AUC (0 to 8 hrs) in Swiss SPF (CD1) mouse plasma at 20 mg/kg, po; format: ADME, organism-based; parameters: time < 8 hr, dose 20 mg/kg, route oral
[39] = AUC (0 to 8 hrs) in Swiss SPF (CD1) mouse heart at 20 mg/kg, po; format: ADME, organism-based; parameters: time < 8 hr, dose 20 mg/kg, route oral
[40] = AUC (0 to 8 hrs) in Swiss SPF (CD1) mouse liver at 20 mg/kg, po; format: ADME, organism-based; parameters: time < 8 hr, dose 20 mg/kg, route oral
[41] = AUC (0 to infinity) in Swiss SPF (CD1) mouse plasma at 20 mg/kg, po; format: ADME, organism-based; parameters: time infinity, dose 20 mg/kg, route oral
[42] = AUC (0 to infinity) in Swiss SPF (CD1) mouse heart at 20 mg/kg, po; format: ADME, organism-based; parameters: time infinity, dose 20 mg/kg, route oral
[43] = AUC (0 to infinity) in Swiss SPF (CD1) mouse liver at 20 mg/kg, po; format: ADME, organism-based; parameters: time infinity, dose 20 mg/kg, route oral
[44] = system: Hepatitis C virus; test: Antiviral activity against HCV subgenomic 1b replicon upto 32 uM; format: functional, organism-based; settings: Hepacivirus hominis; genotype 1b
[45] = Inhibition of HCV NS5B polymerase; parameters: species or system Hepacivirus hominis
[46] = Inhibition of HCV NS3/4A protease; parameters: species or system Hepacivirus hominis
[47] = biological target: Mitogen-activated protein kinase 8 (Homo sapiens, UniProt P45983); test: Inhibition of JNK1
Sequence of Mitogen-activated protein kinase 8 (P45983 whole entry): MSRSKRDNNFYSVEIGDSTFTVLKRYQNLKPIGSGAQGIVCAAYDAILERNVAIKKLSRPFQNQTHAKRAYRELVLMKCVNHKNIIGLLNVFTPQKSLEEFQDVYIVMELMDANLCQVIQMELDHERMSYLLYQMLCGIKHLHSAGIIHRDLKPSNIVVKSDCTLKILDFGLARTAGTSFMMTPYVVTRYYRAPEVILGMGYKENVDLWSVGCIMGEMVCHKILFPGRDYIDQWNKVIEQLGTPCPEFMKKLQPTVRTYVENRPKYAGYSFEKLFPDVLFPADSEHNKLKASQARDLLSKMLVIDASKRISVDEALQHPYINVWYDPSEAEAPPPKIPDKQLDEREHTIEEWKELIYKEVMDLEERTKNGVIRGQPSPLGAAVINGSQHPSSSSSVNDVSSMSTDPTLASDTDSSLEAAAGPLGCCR

[48] = biological target: T1, TGF-beta receptor type-1 (Homo sapiens, UniProt P36897)
T1 sequence (P36897 whole entry): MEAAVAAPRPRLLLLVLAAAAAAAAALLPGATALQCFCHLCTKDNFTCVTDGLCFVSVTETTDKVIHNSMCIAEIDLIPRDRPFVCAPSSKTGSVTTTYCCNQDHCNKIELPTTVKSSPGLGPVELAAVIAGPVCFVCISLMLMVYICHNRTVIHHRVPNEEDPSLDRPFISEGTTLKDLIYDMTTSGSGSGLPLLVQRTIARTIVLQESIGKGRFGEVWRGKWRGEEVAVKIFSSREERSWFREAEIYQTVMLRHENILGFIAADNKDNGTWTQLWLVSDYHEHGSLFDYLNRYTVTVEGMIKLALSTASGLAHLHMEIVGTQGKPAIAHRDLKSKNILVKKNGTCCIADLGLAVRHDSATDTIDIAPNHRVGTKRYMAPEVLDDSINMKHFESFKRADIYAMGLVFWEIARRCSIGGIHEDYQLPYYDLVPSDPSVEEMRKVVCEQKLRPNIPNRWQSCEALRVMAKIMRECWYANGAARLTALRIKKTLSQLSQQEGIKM

EC50 [1]: 2.6 µM
SMILES: COc1cnc(-c2cc(Cl)ccc2F)nc1Nc1ccncc1C(=O)NC[C@H]1CCCO1
CC50 [2]: > 32 µM
CC50 [3]: > 32 µM

EC50 [1]: 1.91 µM
SMILES: FC(F)(F)c1cccc(-c2nc(Nc3ccncc3)c3nccnc3n2)c1
CC50 [2]: > 25 µM
CC50 [3]: > 25 µM

EC50 [1]: 0.59 µM
SMILES: COc1cnc(-c2cc(Cl)ccc2F)nc1Nc1ccncc1C(=O)NCCCN(C)C
CC50 [2]: 5 µM
CC50 [3]: 15.8 µM

EC50 [1]: 4 µM
SMILES: Fc1ccc(Br)cc1-c1nc(Nc2ccccc2)c2nccnc2n1
CC50 [2]: > 32 µM
CC50 [3]: > 32 µM

EC50 [1]: 0.92 µM
SMILES: COc1cnc(-c2cc(Cl)ccc2F)nc1Nc1ccncc1C(=O)NCCCn1ccnc1
CC50 [2]: 8.1 µM
CC50 [3]: 15.3 µM

EC50 [1]: 3.65 µM
SMILES: CN(c1ccncc1)c1nc(-c2cc(Br)ccc2F)nc2nccnc12
CC50 [2]: > 32 µM
CC50 [3]: > 32 µM

EC50 [1]: 9.95 µM
SMILES: Fc1ccccc1-c1nc(Nc2ccncc2)c2nccnc2n1
CC50 [2]: > 25 µM
CC50 [3]: > 25 µM

EC50 [1]: 1.2 µM
SMILES: COc1cnc(-c2cc(Cl)ccc2F)nc1Nc1ccncc1C(=O)NCC(F)(F)F
CC50 [2]: > 32 µM
CC50 [3]: > 32 µM

EC50 [1]: 9.6 µM
SMILES: COc1cnc(-c2cc(Cl)ccc2F)nc1Nc1ccncc1C(=O)NCCNCC(C)O (stereo not given)
CC50 [2]: > 32 µM
CC50 [3]: > 32 µM

EC50 [1]: 3.6 µM
SMILES: Cc1cc(Nc2nc(-c3cc(Br)ccc3F)nc3nccnc23)ccn1
CC50 [2]: 13.2 µM
CC50 [3]: 12.9 µM

SMILES: O=C(NCCCN1CCCC1=O)c1cnccc1Nc1nc(-c2cc(Br)ccc2F)nc2nccnc12
Activity [4]: Active
EC50 [1]: 0.064 µM
CC50 [2]: > 32 µM
CC50 [3]: > 32 µM
Activity [5]: inactive
IC50 [6]: 0.037 µM
IC50 [7]: 0.059 µM
IC50 [8]: 0.047 µM
IC50 [9]: 0.14 µM
IC50 [10]: 0.123 µM
Activity [11]: inactive
concentration at 0.5 h [12]: 220 ng/mL
concentration at 0.5 h [13]: 678 ng/mL
concentration at 0.5 h [14]: 4060 ng/mL
concentration at 1 h [15]: 166 ng/mL
concentration at 1 h [16]: 557 ng/mL
concentration at 1 h [17]: 2940 ng/mL
concentration at 2 h [18]: 21.7 ng/mL
concentration at 2 h [19]: 92.9 ng/mL
concentration at 4 h [20]: 20.3 ng/mL
concentration at 2 h [21]: 611 ng/mL
concentration at 4 h [22]: 83.6 ng/mL
concentration at 4 h [23]: 627 ng/mL
concentration at 8 h [24]: 5.52 ng/mL
concentration at 8 h [25]: 29.1 ng/mL
concentration at 8 h [26]: 201 ng/mL
concentration at 24 h [27]: < 0.5 ng/mL
concentration at 24 h [28]: 5 ng/mL
Cmax [29]: 220 ng/mL
Cmax [30]: 678 ng/mL
Cmax [31]: 4060 ng/mL
Tmax [32]: 0.5 h
Tmax [33]: 0.5 h
Tmax [34]: 0.5 h
half-life [35]: 2.9 h
half-life [36]: 3.4 h
half-life [37]: 3.5 h
AUC(0-t) at 8 h [38]: 309 ng·h/mL
AUC(0-t) at 8 h [39]: 1120 ng·h/mL
AUC(0-t) at 8 h [40]: 6960 ng·h/mL
AUC(0-inf) [41]: 332 ng·h/mL
AUC(0-inf) [42]: 1260 ng·h/mL
AUC(0-inf) [43]: 7970 ng·h/mL
Activity [44]: inactive
IC50 [45]: > 30 µM
IC50 [46]: > 30 µM
IC50 [47]: 10.5 µM
IC50 [48]: 0.0032 µM

EC50 [1]: 0.89 µM
SMILES: Fc1ccc(Cl)cc1-c1nc(Nc2ccncc2)c2nccnc2n1
CC50 [2]: > 25 µM
CC50 [3]: > 25 µM

EC50 [1]: 4.6 µM
SMILES: CCOC(=O)CNC(=O)c1cnccc1Nc1nc(-c2cc(Cl)ccc2F)ncc1OC
CC50 [2]: > 32 µM
CC50 [3]: > 32 µM

EC50 [1]: 3.6 µM
SMILES: COc1cnc(-c2cc(Cl)ccc2F)nc1Nc1ccncc1C(=O)NCCN
CC50 [2]: 4.7 µM
CC50 [3]: 5.5 µM

EC50 [1]: 1.98 µM
SMILES: CN(c1ccccc1)c1nc(-c2cc(Br)ccc2F)nc2nccnc12
CC50 [2]: > 32 µM
CC50 [3]: > 32 µM
